Assays:
Format in all cases: in vivo
[1] = test system: morning glory (Ipomoea spp.); assay: Test A postemergence, sprayed to runoff; parameters: scale not given here; conditions: Morningglory, approx. eleven days
Description: (§1) Seeds of barnyardgrass (Echinochloa crus-galli), crabgrass (Digitaria spp.), giant foxtail (Setaria viridis), morning glory (Ipomoea spp.), redroot pigweed (Amaranthus retroflexus) and velvetleaf (Abutilon theophrasti) were planted into a sandy loam soil and treated preemergence by soil drench with test chemicals formulated in a non-phytotoxic solvent mixture which included a surfactant. At the same time, these crop and weed species were also treated postemergence sprayed to runoff with test chemicals formulated in the same manner. Plants ranged in height from two to eighteen cm and were in the one- to two-leaf stage for the postemergence treatment. Treated plants and untreated controls were maintained in a greenhouse for approximately eleven days, after which time all treated plants were compared to untreated controls and visually evaluated for injury. Plant response ratings, summarized in Table A, are based on a 0 to 10 scale where 0 is no effect and 10 is complete control. A dash (-) response means no test results.

[2] = test system: velvetleaf (Abutilon theophrasti); assay: Test A postemergence, sprayed to runoff; parameters: scale not given here; conditions: approx. eleven days
Description: as §1

rice (Oryza saliva) [3] = assay: Test C flooded paddy test; conditions: for Rice plant response rating: scale 0 to 100, 0 no effect, 100 complete control
Procedure, shortened: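 Response on a 0-to-100 scale (no effect to complete control) was assessed by eye versus controls. Plants had reached 2 leaves when treated in flooded paddy conditions. The assessment took place after 12–14 days of greenhouse growth.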

[4] = test system: barnyardgrass (Echinochloa crus-galli); assay: Test B flooded paddy test; conditions: Rate 1000 g/ha, scale of 0 to 100 where 0 is no effect and 100 is complete control, visually evaluated after 13 to 15 days
Procedure, shortened: (§2)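 Greenhouse-held for 13 to 15 days after treatment at the 2-leaf stage, paddy-grown plants were scored visually against controls on a 0-to-100 control scale; a dash marks no test result.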

[5] = test system: duck salad (Heteranthera limosa); assay: Test B flooded paddy test; conditions: Rate 1000 g/ha, scale of 0 to 100 where 0 is no effect and 100 is complete control, visually evaluated after 13 to 15 days
Procedure, shortened: as §2

rice (Oryza saliva) [6] = assay: Test B flooded paddy test; conditions: Rate 1000 g/ha, scale of 0 to 100 where 0 is no effect and 100 is complete control, visually evaluated after 13 to 15 days
Procedure, shortened: as §2

[7] = test system: smallflower flatsedge (Cyperus difformis); assay: Test B flooded paddy test; conditions: Rate 1000 g/ha, scale of 0 to 100 where 0 is no effect and 100 is complete control, visually evaluated after 13 to 15 days
Procedure, shortened: as §2

Sunflower [8] = assay: Test C preemergence; conditions: Rate 250 g/ha, visual evaluation after 12 to 14 days
Sunflower [9] = assay: Test C preemergence; conditions: Rate 31 g/ha, scale 0 to 100
[10] = test system: Surinam grass (Brachiaria decumbens); assay: Test C postemergence
Procedure, shortened: (§3)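 Preemergence: seeds sown then treated. Postemergence: plants 2–18 cm, 1- to 4-leaf. Both with surfactant-containing solvent formulation; visual injury scored 0–100 after 12–14 d.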

[11] = test system: bermudagrass (Cynodon dactylon); assay: Test C postemergence
Procedure, shortened: as §3

[12] = test system: chickweed (Stellaria media); assay: Test C postemergence
Procedure, shortened: as §3

corn (Zea mays) = assay: Test C postemergence
Procedure, shortened: as §3

[13] = test system: giant foxtail (Setaria faberii); assay: Test C postemergence
Procedure, shortened: as §3

[14] = test system: goosegrass (Eleusine indica); assay: Test C postemergence
Procedure, shortened: as §3

[15] = test system: lambsquarters (Chenopodium album); assay: Test C postemergence
Procedure, shortened: as §3

[16] = test system: morningglory (Ipomoea hederacea); assay: Test C postemergence
Procedure, shortened: as §3

[17] = test system: velvetleaf (Abutilon theophrasti); assay: Test C postemergence
Procedure, shortened: as §3

[18] = test system: yellow nutsedge (Cyperus esculentus); assay: Test C postemergence
Procedure, shortened: as §3

[19] = flooded paddy test, Rate 62 g/ha, scale 0 to 100 (0 no effect, 100 complete control)
[20] = flooded paddy test, Rate 125 g/ha, scale 0 to 100 (0 no effect, 100 complete control)
[21] = Rate 62 g/ha, scale 0 to 100, 0 no effect, 100 complete control
[22] = Rate 125 g/ha, scale 0 to 100, 0 no effect, 100 complete control
[23] = Rate 250 g/ha, scale 0 to 100 (0 no effect, 100 complete control)
[24] = Rate 500 g/ha, scale 0 to 100 (0 no effect, 100 complete control)

With CC(C)(C)c1ccn(C2SCN(c3cccc(C(F)(F)F)c3)C2=O)n1 (stereo not shown) [Compound 1] the “Plant response rating (visual injury vs untreated controls)” value ([1]; Rate 500 g/ha) was 90, the “Plant response rating (visual injury vs untreated controls)” value ([1]; Rate 2000 g/ha) was 90 and the “Plant response rating (visual injury vs untreated controls)” value ([2]; Rate 500 g/ha) was 10. The “Plant response rating (visual injury vs untreated controls)” value ([2]; Rate 2000 g/ha) was 30, the “Plant response rating, Rice” value (rice (Oryza saliva) [3]; Flooded Paddy, Rate 500 g/ha, scale 0 to 100) was 50 and the “Rice plant response rating” value (rice (Oryza saliva) [3]; Flooded Paddy, Rate 250 g/ha) was 0. For the same molecule, the “Plant response rating, Rice” value (rice (Oryza saliva) [3]; [19]) was 0 and the “Plant response rating, Rice” value (rice (Oryza saliva) [3]; [20]) was 0.

For CC(C)(C)c1nn(C2CCN(c3cccc(C(F)(F)F)c3)C2=O)cc1Cl (stereo not shown) [Compound 14], the “Plant response rating (visual injury vs untreated controls)” value ([1]; Rate 500 g/ha) was 0, the “Plant response rating (visual injury vs untreated controls)” value ([1]; Rate 2000 g/ha) was 0 and the “Plant response rating (visual injury vs untreated controls)” value ([2]; Rate 500 g/ha) was 0. For the same molecule, the “Plant response rating (visual injury vs untreated controls)” value ([2]; Rate 2000 g/ha) was 0, the “Plant response rating, Barnyardgrass” value [4] was 0 and the “Plant response rating, Ducksalad” value [5] was 0. The “Plant response rating, Rice” value (rice (Oryza saliva) [6]) was 0 and the “Plant response rating, Flatsedge” value [7] was 0.

For CC(C)(C)c1ccn(C2CCN(c3ccc(Cl)c(Cl)c3)C2=O)n1 (stereo not shown) [Compound 34], the “Plant response rating, Barnyardgrass” value [4] was 100, the “Plant response rating, Ducksalad” value [5] was 100 and the “Plant response rating, Rice” value (rice (Oryza saliva) [6]) was 30. For the same molecule, the “Plant response rating, Flatsedge” value [7] was 100, the “Rice plant response rating” value (rice (Oryza saliva) [3]; Flooded Paddy, Rate 250 g/ha) was 0 and the “Rice plant response rating” value (rice (Oryza saliva) [3]; Flooded Paddy, Rate 500 g/ha) was 20. The “Plant response rating, Rice” value (rice (Oryza saliva) [3]; [19]) was 0, the “Plant response rating, Rice” value (rice (Oryza saliva) [3]; [20]) was 0 and the “Plant response rating (0 to 100), Sunflower” value (Sunflower [8]) was 0. For the same molecule, the “Plant response rating, Sunflower” value (Sunflower [9]) was 0.

With CC(C)(C)c1ccn(C2SCN(c3cccc(OC(F)(F)F)c3)C2=O)n1 (stereo not shown) [Compound 30] the “Plant response rating, Barnyardgrass” value [4] was 100, the “Plant response rating, Ducksalad” value [5] was 100 and the “Plant response rating, Rice” value (rice (Oryza saliva) [6]) was 90. For the same molecule, the “Plant response rating, Flatsedge” value [7] was 100, the “Plant response rating, Surinam grass” value [10, 21] was 0 and the “Plant response rating, Surinam grass” value [10, 22] was 0. The “Plant response rating, Surinam grass” value [10, 23] was 0, the “Plant response rating, Surinam grass” value [10, 24] was 60 and the “Plant response rating, Bermudagrass” value [11, 21] was 70. For the same molecule, the “Plant response rating, Bermudagrass” value [11, 22] was 80, the “Plant response rating, Bermudagrass” value [11, 23] was 80 and the “Plant response rating, Bermudagrass” value [11, 24] was 90. For the same molecule, the “Plant response rating, Chickweed” value [12, 21] was 50, the “Plant response rating, Chickweed” value [12, 22] was 60 and the “Plant response rating, Chickweed” value [12, 23] was 70. The “Plant response rating, Chickweed” value [12, 24] was 90, the “Plant response rating, Corn” value (corn (Zea mays); [22]) was 20 and the “Plant response rating, Corn” value (corn (Zea mays); [23]) was 30. The “Plant response rating, Corn” value (corn (Zea mays); [24]) was 40, the “Plant response rating, Foxtail, Giant” value [13, 22] was 0 and the “Plant response rating, Foxtail, Giant” value [13, 23] was 30. The “Plant response rating, Foxtail, Giant” value [13, 24] was 80, the “Plant response rating, Goosegrass” value [14, 22] was 0 and the “Plant response rating, Goosegrass” value [14, 23] was 30. For the same molecule, the “Plant response rating, Goosegrass” value [14, 24] was 40, the “Plant response rating, Lambsquarters” value [15, 22] was 90 and the “Plant response rating, Lambsquarters” value [15, 23] was 90. The “Plant response rating, Lambsquarters” value [15, 24] was 90, the “Plant response rating, Morningglory” value [16, 22] was 0 and the “Plant response rating, Morningglory” value [16, 23] was 40. For the same molecule, the “Plant response rating, Morningglory” value [16, 24] was 40, the “Plant response rating, Velvetleaf” value [17, 22] was 30 and the “Plant response rating, Velvetleaf” value [17, 23] was 50. For the same molecule, the “Plant response rating, Velvetleaf” value [17, 24] was 60, the “Plant response rating, Nutsedge” value [18, 22] was 0 and the “Plant response rating, Nutsedge” value [18, 23] was 0. For the same molecule, the “Plant response rating, Nutsedge” value [18, 24] was 0, the “Rice plant response rating” value (rice (Oryza saliva) [3]; Flooded Paddy, Rate 250 g/ha) was 80 and the “Rice plant response rating” value (rice (Oryza saliva) [3]; Flooded Paddy, Rate 500 g/ha) was 80. The “Plant response rating, Rice” value (rice (Oryza saliva) [3]; [19]) was 0, the “Plant response rating, Rice” value (rice (Oryza saliva) [3]; [20]) was 20 and the “Plant response rating (scale 0 to 100), Rice” value (rice (Oryza saliva) [3]; flooded paddy test, Rate 16 g/ha, visually evaluated after 12 to 14 days, 0 = no effect, 100 = complete control) was 0. The “Plant response rating (scale 0 to 100), Rice” value (rice (Oryza saliva) [3]; flooded paddy test, under head Rate 16 g/ha, (own rate not given), after 12 to 14 days) was 0 and the “Plant response rating (0 to 100), Sunflower” value (Sunflower [8]) was 80.

— US7138361B2, “Herbicidal heterocycles” (E. I. du Pont de Nemours and Company, priority 2000, dated 2006)
